Laboratory results published in EP4245365B1, “A FXR SMALL MOLECULE AGONIST, THE PREPARATION AND USE THEREOF” (Cascade Pharmaceuticals, Inc., priority 2022, dated 2023).
Read-outs that look alike come from different tables or passages of the source.

What was measured:
FXR = target: T1, FXR (Homo sapiens, UniProt Q96RI1); assay: FXR agonistic activity by reporter gene (pGAL4-FXR-LBD / pG5-Luc, Dual-Glo luciferase) in HEK293T cells; format: cell-based
T1 construct: expressed in transfected cells; host or cells: HEK293T
T1 sequence (Q96RI1 212-476 isoform Q96RI1-1): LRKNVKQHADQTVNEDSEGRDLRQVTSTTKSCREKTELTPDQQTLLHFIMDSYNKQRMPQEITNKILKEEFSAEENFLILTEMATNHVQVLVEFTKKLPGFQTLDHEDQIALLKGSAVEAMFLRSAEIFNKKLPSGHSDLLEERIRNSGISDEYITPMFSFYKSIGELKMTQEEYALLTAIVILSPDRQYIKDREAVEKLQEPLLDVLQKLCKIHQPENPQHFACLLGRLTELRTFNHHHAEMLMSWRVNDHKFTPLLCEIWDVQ
Description: 1.2 Plasmid Co-transfection of HEK293T Cells and Compound Treatment HEK293T cells were seeded in 96-well plates at a density of 1×10^4/well one day before plasmid transfection. […] 2 duplicate wells were set up in total. […] The dose-response curves were fitted with four parameters using GraphPad Prism 6.0 software, and EC50 values were calculated.

[1] = mouse, in vivo, iv, 1 mg/kg
Description: (§1) In each group of embodiment, 6 male ICR mice with a similar body weight were selected, of which 3 mice were dosed orally in a single dose of 3 mg/kg, and 3 mice were dosed intravenously in a single dose of 1 mg/kg. Blood samples were collected at time points of 15 min, 30 min, 1 h, 2 h, 4 h and 7 h after administration. The concentrations of plasma samples were analyzed by LC-MS/MS.
(§2) 12 healthy male ICR mice, commercially available from Charles River with an animal production license NO.: 2021123 1Abzz0619000376, were divided into 4 groups, 3 in each group.
(§3) Formulation preparation: a certain amount of compounds were weighed and added into a 2% DMSO+15% Solutol+83% saline, to prepare a clear solution.
(§4) Dosage: ICR mice were fasted overnight and given each compound at an oral dose of 3 mg/kg or an intravenous dose of 1 mg/kg. The administrated volume for oral and intravenous administration are 10 mL/kg and 5 mL/kg, respectively.
(§5) Sample collection: About 30 µL of blood was collected via great saphenous vein at 15 min, 30 min, 1 h, 2 h, 4 h and 7 h after dosage. The blood was placed into a commercial tube containing K2-EDTA. Plasma samples were then obtained by centrifuging the blood samples at approximately 4°C, 4600 rpm for 5 minutes. All plasma samples were then quickly frozen on dry ice and kept at -70°C until LC-MS/MS analysis.
(§6) Sample preparation: 10 µL of plasma samples were precipitated by methanol containing 50 nmol/L of α-naphthoflavone as internal standard. The mixture was votex-mixed well and centrifuged at 14000 rpm for 5 min at 4°C. 75 µL of the supernatant was taken and mixed with 75 µL of methanol, and introduced for LC-MS/MS analysis.

in vivo = settings: mouse, po, 3 mg/kg
Description: as §1, §2, §3, §4, §5, §6

[2] = Cellular Level Activity EC50(nM) of FXR, HEK293T cells co-transfected with pGAL4-FXR-LBD, pG5-Luc, phRL-TK, 24 h treatment
[3] = HEK293T cells co-transfected with pGAL4-FXR-LBD, pG5-Luc, phRL-TK, 24 h treatment, read-out: Cellular Level Activity EC50(nM) of FXR
[4] = HEK293T reporter gene assay, read-out: EC50 values (FXR agonistic activity)
[5] = EC50 values (FXR agonistic activity), HEK293T reporter gene assay

## O=c1[nH]c(-c2ccc(N3[C@@H]4CC[C@H]3C[C@@H](OCc3c(-c5c(Cl)cccc5Cl)noc3C3CC3)C4)cc2F)no1 [Control 1, reference compound]
FXR; [2]
  EC50: 5 to 10 nM

## O=c1[nH]c(-c2ccc(N3C4CCC3CC(OCc3c(-c5ccccc5C(F)(F)F)noc3C3CC3)C4)cc2F)no1 (stereo not shown) [Embodime nt 1]
[1]
  CL_obs: 20.5 ± 4.6 mL/min/kg
  Vss_obs: 0.418 ± 0.076 L/kg
In vivo
  AUC(0-t) at 7 h: 318 ± 172 ng·h/mL
  Cmax: 312 ± 140 ng/mL
  bioavailability: 12.6%

## [2H]C([2H])(O[C@H]1C[C@H]2CC[C@@H](C1)N2c1ccc(-c2noc(=O)[nH]2)c(F)c1)c1c(-c2ccccc2C(F)(F)F)noc1C1CC1 [Embodime nt 2]
[1]
  CL_obs: 21.6 ± 2.4 mL/min/kg
  Vss_obs: 0.704 ± 0.033 L/kg
In vivo
  AUC(0-t) at 7 h: 587 ± 54 ng·h/mL
  Cmax: 555 ± 25 ng/mL
  bioavailability: 25.2%

## [2H]C([2H])(OC1CC2CCC(C1)N2c1ccc(-c2noc(=O)[nH]2)cc1)c1c(-c2c(Cl)cccc2Cl)noc1C1CC1 (stereo not shown) [Example 1]
FXR; [3]
  EC50: < 5 nM
FXR; [4]
  EC50: < 5 nM

## [2H]C([2H])(OC1CC2CCC(C1)N2c1ccc(-c2noc(=O)[nH]2)nc1)c1c(-c2c(Cl)cccc2Cl)noc1C1CC1 (stereo not shown) [Example 2]
FXR; [3]
  EC50: < 5 nM
FXR; [4]
  EC50: < 5 nM

## [2H]C([2H])(OC1CC2CCC(C1)N2c1ccc(-c2noc(=O)[nH]2)c(F)c1)c1c(-c2c(Cl)cccc2Cl)noc1C1CC1 (stereo not shown) [Example 3]
FXR; [2]
  EC50: < 5 nM
FXR; [5]
  EC50: < 5 nM
FXR; HEK293T reporter gene assay, comparison with LJN452 and Control 1
  FXR agonistic activity / cellular level activity (in words): significantly improved activity

## [2H]C(OC1CC2CCC(C1)N2c1ccc(-c2noc(=O)[nH]2)c(F)c1)c1c(-c2c(Cl)cccc2Cl)noc1C1CC1 (stereo not shown) [Example 4]
FXR; [2]
  EC50: < 5 nM
FXR; [5]
  EC50: < 5 nM

## [2H]C([2H])(OC1CC2CCC(C1)N2c1ccc(-c2noc(=O)[nH]2)c(C)c1)c1c(-c2c(Cl)cccc2Cl)noc1C1CC1 (stereo not shown) [Example 5]
FXR; [3]
  EC50: 5 to 10 nM

## [2H]C([2H])(OC1CC2CCC(C1)N2c1ccc(-c2noc(=O)[nH]2)c(OC)c1)c1c(-c2c(Cl)cccc2Cl)noc1C1CC1 (stereo not shown) [Example 6]
FXR; [3]
  EC50: 5 to 10 nM

## [2H]C([2H])(OC1CC2CCC(C1)N2c1ccc(-c2noc(=O)[nH]2)c(C(F)(F)F)c1)c1c(-c2c(Cl)cccc2Cl)noc1C1CC1 (stereo not shown) [Example 7]
FXR; [3]
  EC50: 5 to 10 nM

## [2H]C([2H])(OC1CC2CCC(C1)N2c1ccc(-c2noc(=O)[nH]2)c(F)c1)c1c(-c2ccccc2C(F)(F)F)noc1C1CC1 (stereo not shown) [Example 8]
FXR; [3]
  EC50: 5 to 10 nM

## [2H]C([2H])(OC1CC2CCC(C1)N2c1ccc(-c2noc(=O)[nH]2)c(F)c1)c1c(-c2ccccc2OC(F)(F)F)noc1C1CC1 (stereo not shown) [Example 9]
FXR; [3]
  EC50: 5 to 10 nM
